Test system: PBC patients
Test: THIN database cohort study of PBC patients: decompensation, liver transplant and mortality free survival by drug usage
Type: in vivo, human
Source text: We conducted a cohort study using The Health Improvement Network (THIN). THIN is one of the largest medical databases in the UK^8, consisting of prospectively gathered electronic medical records from over 11.1 million patients^8. […] Data from participant general practitioners across the UK is exported to the THIN administrators and database, which is updated every 3 months^11. The THIN database records demographic data and clinical events using Read codes, prescription medications, and laboratory values^12.
We identified patients with PBC Read code “J6160” from April 1974 until May 2007. This cohort was followed until May 2012. We excluded patients having overlap syndrome with autoimmune hepatitis or primary sclerosing cholangitis. The first code of PBC identified in the THIN database was considered the index (ie. diagnosis) date. FIG. 10 provides a flow diagram illustrating the selection of the study population. The primary outcome was the first occurrence of one of the three events following the diagnosis of PBC: (1) decompensation of cirrhosis (ascites, spontaneous bacterial peritonitis, hepatic encephalopathy, hepatorenal syndrome, variceal bleeding, jaundice, or hepatocellular carcinoma); (2) liver transplantation; or (3) death.
Read codes were used to identify patients with chronic depression disorder. Chronic depression was defined as follows: (1) never diagnosed with chronic depression; (2) past depression diagnosis prior to 90 days from PBC diagnosis; and (3) current depression diagnosis if a diagnosis was made within 90 days before or after a PBC diagnosis. Using THIN database therapy files, we assessed the impact of anti-depressant medications on outcomes of PBC patients (mortality, decompensation, and liver transplant).
For each anti-depressant medication, use was defined as follows: (1) never used the medication; (2) past use as defined as a previous code for medication use prior to 90 days of PBC diagnosis; and (3) current medication user if the medication code was identified within 90 days before or after a PBC diagnosis. We assessed the effect of each anti-depressant medication on study outcomes separately. Antidepressants were classified as typical or atypical and stratified accordingly. Atypical antidepressants include: Agomelatine, Bupropion and Mirtazapine. While typical antidepressants include the following groups: (a) Selective Serotonin Reuptake Inhibitors (SSRI): Citalopram, Escitalopram, Fluoxetine, Fluvoxamine, Paroxetine and Sertraline; (b) […] (SNRI): Desvenlafaxine, Duloxetine, Minacipran and Venlafaxine; (c) Serotonin modulators: Nefazodone, Trazodone and Vilazodone; (d) Tricyclics and tetracyclics: Amitriptyline, Amoxapine, Clomipramine, Desipramine, Doxepin, Imipramine, Maprotiline, Nortriptyline and Protriptyline, Trimiprramine; (e) Monamine oxidase inhibitors: Isocarboxazid, Phenelzine, Selegiline and Tranylcypromine.
We assessed age at diagnosis of PBC, sex, and the presence of coexisting liver disease (ie. chronic hepatitis either viral, alcoholic, or fatty liver disease; yes/no). Smoking status was classified (current, former, never smoked, or unknown status) at the time of PBC diagnosis, alcohol consumption was classified (current, former, never consumed alcohol, or unknown status) at PBC diagnosis. Ursodeoxycholic acid (UDCA) usage (ever/never recorded) was also determined.
In our primary analysis, we assessed demographic, clinical, and medication variables in the PBC cohort according to depression status. Where appropriate, we used the Fisher Exact test or Chi-Square test for categorical data, and the Kruskal-Wallis or Student's t-test for continuous data. Univariate analysis using Log Rank test and multivariate Cox Proportional Regression models were used to assess the impact of depression or anti-depressant medications on PBC outcomes as defined by death, decompensated cirrhosis, or liver transplant. […]

[1] = usage prior to PBC diagnosis vs none

`CN1CCN2c3ncccc3Cc3ccccc3C2C1` (stereo not drawn) [Mirtazapine] was tested, and the “Protective effect against liver decompensation, transplantation, or death” value (PBC cohort) was “over four-fold protective effect”, the “Requirement of liver transplant” value (PBC patients who had ever used the drug) was “None of the PBC patients who had ever used mirtazapine required liver transplant” and the “Multivariate model-2 HR (include age, gender, alcohol, URSO, depression, mirtazapine)” value (current usage (after PBC diagnosis) vs none) was 0.23. The “Univariate HR, 10-year decompensation, liver transplant and mortality free survival” value (current usage vs none) was 0.22, the “Adjusted HR, mortality” value (current usage, outcome assessed separately) was 0.22 and the “Adjusted HR, liver decompensation” value (current usage, outcome assessed separately, not significant) was 0.22. The “Adjusted HR, decompensated cirrhosis, liver transplant and mortality” value (sensitivity analysis: only patients using UDCA (n=793), current usage) was 0.21, the “Multivariate model-2 HR (include age, gender, alcohol, URSO, depression, mirtazapine)” value [1] was 0.94 and the “Univariate HR, 10-year decompensation, liver transplant and mortality free survival” value [1] was 0.84.

— patent US11510928B2, “Use of mirtazapine in the treatment of inflammatory disorders, autoimmune disease and PBC” (UTI Limited Partnership, priority 2017, dated 2022)
